pKd: −log10 of the molar value. Read-outs that look alike come from different tables or passages of the source.
Experiments:
[1] = tested on: calmodulin; conditions: amino- and carboxy-terminal deletion peptides; ref [38]; cited from earlier work
[2] = target: calcium-saturated calmodulin (CaM·4Ca^2+) (Sus scrofa, UniProt F2Z5G3)
[3] = target: calcium-saturated calmodulin (CaM·4Ca^2+) (Homo sapiens, UniProt P0DP23)
[4] = target: calmodulin; conditions: read-out: dissociation constant; 4°C, pH 7.0; equilibrium dialysis; ref [35]; cited from earlier work
[5] = target: calmodulin; conditions: read-out: dissociation constant; 25°C, pH 7.3; fluorescence of dansylcalmodulin; ref [33]; cited from earlier work
[6] = target: Porcine calmodulin saturated with calcium (CaM·4Ca2+) (porcine); experiment: HDX-MS
[7] = target: Porcine calmodulin saturated with calcium (CaM·4Ca2+) (porcine); experiment: HDX-MS; remark: listed apart in the source
[8] = from ΔD1, corrected for 50% D2O

Chain of β-endorphin (P01189 237-267): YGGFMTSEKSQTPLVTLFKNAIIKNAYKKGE

Row | Ka [6] [M⁻¹] | pKd [6] | Ka [7] [M⁻¹] | pKd [7] | Compound | domain responsible for inhibition of calmodulin function [1] | ΔD1 (difference in deuterium uptake between bound and unbound peptide) ([2]; dPLIMSTEX, peptide mass readout, 50% D2O) | backbone amides of the peptide protected upon binding to CaM·4Ca^2+ [2, 8] | backbone amide protons of CaM·4Ca^2+ that become protected on binding [3, 8] | ΔD1 (difference in deuterium uptake of the protein on binding) ([3]; traditional PLIMSTEX, protein mass readout, 50% D2O) | pKd [4] | pKd [5]
1 | – | – | – | – | CC[C@H](C)[C@H](NC(=O)[C@H](C)NC(=O)[C@H](CC(N)=O)NC(=O)[C@H](CCCCN)NC(=O)[C@H](Cc1ccccc1)NC(=O)[C@H](CC(C)C)NC(=O)[C@@H](NC(=O)[C@@H](NC(=O)[C@H](CC(C)C)NC(=O)[C@@H]1CCCN1C(=O)[C@@H](NC(=O)[C@H](CCC(N)=O)NC(=O)[C@H](CO)NC(=O)[C@H](CCCCN)NC(=O)[C@H](CCC(=O)O)NC(=O)[C@H](CO)NC(=O)[C@@H](NC(=O)[C@H](CCSC)NC(=O)[C@H](Cc1ccccc1)NC(=O)CNC(=O)CNC(=O)[C@@H](N)Cc1ccc(O)cc1)[C@@H](C)O)[C@@H](C)O)C(C)C)[C@@H](C)O)C(=O)N[C@H](C(=O)N[C@@H](CCCCN)C(=O)N[C@@H](CC(N)=O)C(=O)N[C@@H](C)C(=O)N[C@@H](Cc1ccc(O)cc1)C(=O)N[C@@H](CCCCN)C(=O)N[C@@H](CCCCN)C(=O)NCC(=O)N[C@@H](CCC(=O)O)C(=O)O)[C@@H](C)CC [β-endorphin] | residues 14–25 | 3.96 ± 0.09 | at least eight | approximately 30 | 15.0 | 5.34 to 5.60 | 5.42 to 5.72
2 | 205000 | 5.31 | 220000 | 5.35 | β-endorphin (from UniProt P01189 237-267) (peptide) | – | – | – | – | – | – | –
